Measured values: patent US6472418B1, “Non-peptide NK1 receptors antagonists” (Warner-Lambert Company, priority 1998, dated 2002)

target: T1, Human NK1 Receptor (Homo sapiens, UniProt P25103); assay: In Vitro Human NK1 Receptor Binding Assay ([125I]Bolton-Hunter substance P displacement, IM9 cells); conditions: Human lymphoma IM9 cells, [125I]Bolton-Hunter substance P (0.05-0.1 nM), 50 min at 21° C.; Table 1; read-out: NK1 binding IC50
T1 construct: endogenous in cells; host or cells: Human lymphoma IM9 cells (whole cells)
T1 sequence (P25103 whole entry): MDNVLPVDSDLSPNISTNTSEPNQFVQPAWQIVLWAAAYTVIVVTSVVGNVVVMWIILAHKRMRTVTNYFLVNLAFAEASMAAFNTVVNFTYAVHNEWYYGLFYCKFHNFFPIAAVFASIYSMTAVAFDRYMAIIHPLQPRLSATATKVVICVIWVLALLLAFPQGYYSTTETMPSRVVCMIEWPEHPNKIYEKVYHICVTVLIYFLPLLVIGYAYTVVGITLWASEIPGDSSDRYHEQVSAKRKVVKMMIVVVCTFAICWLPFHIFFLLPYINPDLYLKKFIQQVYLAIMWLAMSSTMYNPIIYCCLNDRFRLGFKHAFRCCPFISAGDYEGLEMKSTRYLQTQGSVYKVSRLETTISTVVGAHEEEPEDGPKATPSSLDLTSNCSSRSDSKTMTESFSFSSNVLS
Summary of the method: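 Test compounds competed with 0.05-0.1 nM [125I]Bolton-Hunter substance P for binding to intact IM9 cells over 50 min at 21° C, pH 7.4 buffer with MnCl2 and peptidase inhibitors. […] [Sar9, Met(O2)11] substance P gave non-specific binding. Bound counts were measured after filtration and fitted iteratively.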

For `C[C@H](NC(=O)[C@@H](Cc1c[nH]c2ccccc12)NCc1cccc([N+](=O)[O-])c1)c1ccccc1` (relative stereo) [Example 15, 3-(1H-Indol-3-yl)-2-(3-nitro-benzylamino)-N-(1-phenyl-ethyl)-propionamide, [R-(R*,S*)]], the IC50 was over 10000 nM.

same assay, conditions: Human lymphoma IM9 cells, [125I]Bolton-Hunter substance P; Table 3, array-synthesis products; read-out: IC50 (nM) hNK1

First: O=C(NCC1CCCO1)C(Cc1c[nH]c2ccccc12)NCc1cc2ccccc2o1 (stereo not drawn) [Example 223, 2-[(Benzofuran-2-ylmethyl)-amino]-3-(1H-indol-3-yl)-N-(tetrahydro-furan-2-ylmethyl)-propionamide]
Second: O=C(NCc1ccco1)C(Cc1c[nH]c2ccccc12)NCc1cc2ccccc2o1 (stereo not drawn) [Example 261, 2-[(Benzofuran-2-ylmethyl)-amino]-N-furan-2-ylmethyl-3-(1H-indol-3-yl)-propionamide]
The IC50 of the first is higher: over 10000 nM for the first, 406 nM for the second. The second is the more potent here.

First: CC(Cc1ccc(Cl)cc1)NC(=O)C(Cc1c[nH]c2ccccc12)NCc1cc2ccccc2o1 (stereo not drawn) [Example 282, 2-[(Benzofuran-2-ylmethyl)-amino]-N-[2-(4-chloro-phenyl)-1-methyl-ethyl]-3-(1H-indol-3-yl)-propionamide]
Second: O=C(NCCc1ccc(Cl)cc1)C(Cc1c[nH]c2ccccc12)NCc1cc2ccccc2o1 (stereo not drawn) [Example 288, 2-[(Benzofuran-2-ylmethyl)-amino]-N-[2-(4-chloro-phenyl)-ethyl]-3-(1H-indol-3-yl)-propionamide]
The IC50 of the first is 6.1-fold higher: 833 nM for the first, 136 nM for the second.

Compared with `O=C(NCCOc1ccccc1)C(Cc1c[nH]c2ccccc12)NCc1cc2ccccc2o1` (stereo not drawn) [Example 305, 2-[(Benzofuran-2-ylmethyl)-amino]-3-(1H-indol-3-yl)-N-(2-phenoxy-ethyl)-propionamide], `CC(C)(CNC(=O)C(Cc1c[nH]c2ccccc12)NCc1cc2ccccc2o1)c1ccccc1` (stereo not drawn) [Example 257, 2-[(Benzofuran-2-ylmethyl)-amino]-3-(1H-indol-3-yl)-N-(2-methyl-2-phenyl-propyl)-propionamide] is higher in IC50: 400 nM for the first, over 10000 nM for the second. The first is the more potent here.

First: CC(NC(=O)C(Cc1c[nH]c2ccccc12)NCc1cc2ccccc2o1)C1CCCCC1 (stereo not drawn) [Example 241, 2-[(Benzofuran-2-ylmethyl)-amino]-N-(1-cyclohexyl-ethyl)-3-(1H-indol-3-yl)-propionamide]
Second: CC(NC(=O)C(Cc1c[nH]c2ccccc12)NCc1cc2ccccc2o1)c1ccn(C)c1 (stereo not drawn) [Example 230, 2-[(Benzofuran-2-ylmethyl)-amino]-3-(1H-indol-3-yl)-N-[1-(1-methyl-1H-pyrrol-3-yl)-ethyl]-propionamide]
The IC50 of the first is 10-fold lower: 2 nM for the first, 21 nM for the second.

Compared with `CC(Cc1c[nH]c2ccccc12)NC(=O)C(Cc1c[nH]c2ccccc12)NCc1cc2ccccc2o1` (stereo not drawn) [Example 297, 2-[(Benzofuran-2-ylmethyl)-amino]-3-(1H-indol-3-yl)-N-[2-(1H-indol-3-yl)-1-methyl-ethyl]-propionamide], `Cc1ccccc1CNC(=O)C(Cc1c[nH]c2ccccc12)NCc1cc2ccccc2o1` (stereo not drawn) [Example 242, 2-[(Benzofuran-2-ylmethyl)-amino]-3-(1H-indol-3-yl)-N-(2-methyl-benzyl)-propionamide] is 21-fold lower in IC50: 3610 nM for the first, 170 nM for the second.

Compared with `COc1ccc(CNC(=O)C(Cc2c[nH]c3ccccc23)NCc2cc3ccccc3o2)cc1` (stereo not drawn) [Example 199, 2-[(Benzofuran-2-ylmethyl)-amino]-3-(1H-indol-3-yl)-N-(4-methoxy-benzyl)-propionamide], `O=C(NCc1ccc(Cl)c(Cl)c1)C(Cc1c[nH]c2ccccc12)NCc1cc2ccccc2o1` (stereo not drawn) [Example 279, 2-[(Benzofuran-2-ylmethyl)-amino]-N-(3,4-dichloro-benzyl)-3-(1H-indol-3-yl)-propionamide] is 4.3-fold lower in IC50: 130 nM for the first, 30 nM for the second. The second is the more potent here.

same assay, conditions: Table 4; [125I]Bolton-Hunter substance P displacement, human IM9 cells; read-out: IC50 (nM) hNK1

Going from `CC(NC(=O)C(C)(Cc1c[nH]c2ccccc12)NCC(Cc1ccccc1)c1ccccc1)c1ccccc1` (stereo not drawn) [compound 332, 2-(2,3-Diphenyl-propylamino)-3-(1H-indol-3-yl)-2-methyl-N-(1-phenyl-ethyl)-propionamide] to `CC(NC(=O)C(C)(Cc1c[nH]c2ccccc12)NCc1ccccc1OCc1cccnc1)c1ccccc1` (stereo not drawn) [compound 324, 3-(1H-Indol-3-yl)-2-methyl-N-(1-phenyl-ethyl)-2-[2-(pyridin-3-ylmethoxy)-benzylamino]-propionamide], the IC50 falls from 4940 nM to 2970 nM (1.7-fold). The second is the more potent here.

`COc1ccc2cc(CNC(C)(Cc3c[nH]c4ccccc34)C(=O)NC(C)c3ccccc3)oc2c1` (stereo not drawn) [compound 319, 3-(1H-Indol-3-yl)-2-[(6-methoxy-benzofuran-2-ylmethyl)-amino]-2-methyl-N-(1-phenyl-ethyl)-propionamide] showed an IC50 of 2100 nM.

same assay, conditions: Table 5; [125I]Bolton-Hunter substance P displacement, human IM9 cells; read-out: IC50 (nM) hNK1

With `CC(NC(=O)C(Cc1c[nH]c2ccccc12)NCc1cccc(OCc2ccccc2)c1)c1ccccc1` (stereo not drawn) [compound 382] the IC50 was over 10000 nM.

same assay, conditions: human NK1 receptor, IM9 cells, [125I]Bolton-Hunter substance P; read-out: IC50 (nM) hNK1

Going from `CC(Cc1c[nH]c2ccccc12)(NCc1cc2ccccc2o1)C(=O)NCc1ccncc1` (stereo not drawn) [compound 25, 2-[(Benzofuran-2-ylmethyl)-amino]-3-(1H-indol-3-yl)-2-methyl-N-pyridin-4-ylmethyl-propionamide] to `CC(Cc1c[nH]c2ccccc12)(NCc1cc2ccccc2o1)C(=O)NCc1cccc(Br)c1` (stereo not drawn) [compound 72, 2-[(Benzofuran-2-ylmethyl)-amino]-N-(3-bromo-benzyl)-3-(1H-indol-3-yl)-2-methyl-propionamide], the IC50 falls from 131 nM to 18 nM (7.3-fold). The second is the more potent here.

Compared with `Cc1cccc(CNC(=O)C(C)(Cc2c[nH]c3ccccc23)NCc2cc3ccccc3o2)c1C` (stereo not drawn) [compound 54, 2-[(Benzofuran-2-ylmethyl)-amino]-N-(2,3-dimethyl-benzyl)-3-(1H-indol-3-yl)-2-methyl-propionamide], `COc1cccc(CNC(=O)C(C)(Cc2c[nH]c3ccccc23)NCc2cc3ccccc3o2)c1OC` (stereo not drawn) [compound 142, 2-[(Benzofuran-2-ylmethyl)-amino]-N-(2,3-dimethoxy-benzyl)-3-(1H-indol-3-yl)-2-methyl-propionamide] is 2.4-fold higher in IC50: 834 nM for the first, 1960 nM for the second.

Compared with `CC(Cc1c[nH]c2ccccc12)(NCc1cc2ccccc2o1)C(=O)NCC1CCNC1` (stereo not drawn) [compound 154, 2-[(Benzofuran-2-ylmethyl)-amino]-3-(1H-indol-3-yl)-2-methyl-N-pyrrolidin-3-ylmethyl-propionamide], `CC(Cc1c[nH]c2ccccc12)(NCc1cc2ccccc2o1)C(=O)NCC1CCCO1` (stereo not drawn) [compound 135, 2-[(Benzofuran-2-ylmethyl)-amino]-3-(1H-indol-3-yl)-2-methyl-N-(tetrahydro-furan-2-ylmethyl)-propionamide] is lower in IC50: over 10000 nM for the first, 1200 nM for the second. The second is the more potent here.

First: CN1Cc2ccccc2CC1CNC(=O)C(C)(Cc1c[nH]c2ccccc12)NCc1cc2ccccc2o1 (stereo not drawn) [compound 106, 2-[(Benzofuran-2-ylmethyl)-amino]-3-(1H-indol-3-yl)-2-methyl-N-(2-methyl-1,2,3,4-tetrahydro-isoquinolin-3-ylmethyl)-propionamide]
Second: CC(Cc1c[nH]c2ccccc12)(NCc1cc2ccccc2o1)C(=O)NCc1ccc(F)cc1Cl (stereo not drawn) [compound 168]
The IC50 of the first is 20-fold higher: 4630 nM for the first, 230 nM for the second.

`COC(=O)c1ccc(CNC(=O)C(C)(Cc2c[nH]c3ccccc23)NCc2cc3ccccc3o2)c(OC)c1` (stereo not drawn) [compound 81, 4-{[2-[(Benzofuran-2-ylmethyl)-amino]-3-(1H-indol-3-yl)-2-methyl-propionylamino]-methyl}-3-methoxy-benzoic acid methyl ester] and `CC(Cc1c[nH]c2ccccc12)(NCc1cc2ccccc2o1)C(=O)NCC1(O)CCCCC1` (stereo not drawn) [compound 116, 2-[(Benzofuran-2-ylmethyl)-amino]-N-(1-hydroxy-cyclohexylmethyl)-3-(1H-indol-3-yl)-2-methyl-propionamide] cannot be ordered by IC50: over 10000 nM for the first, over 10000 nM for the second.
